Data reported in US12128035B2, “Activating pyruvate kinase R” (Novo Nordisk Health Care AG, priority 2021, dated 2024).

Tested on: ATP blood levels
Experiment: Phase 1 SAD/MAD: blood ATP (LC-MS/MS) in healthy volunteers
Assay type: in vivo, human
Conditions: for Median Percentage Change in ATP Levels / Mean Percentage Change in ATP Levels: HV 400 mg QD
Protocol: In this study, SAD/MAD cohorts are randomized (3 to 1) to receive Compound 1 or placebo (P). Compound 1 was evaluated first in 4 healthy SAD cohorts and 4 healthy MAD (14-day dosing period) cohorts. Based on the safety, and PK/PD profile from HS, Compound 1 is then evaluated in 1 SCD SAD cohort and 2 SCD MAD cohorts. Specifically, based on the safety and pharmacokinetic/pharmacodynamics (PK/PD) profile in healthy volunteer studies, Compound 1 is evaluated in patients (pts) with SCD, first in a single dose (SD or SAD) cohort and then in multiple-dose (MD or MAD) cohorts (14-day and 12-week). Safety assessments include AEs, vital signs, ECGs and laboratory parameters. PK/PD blood sampling was performed on Day 1 (SAD/MAD) and Day 14 (MAD) and up to 72 h after the last dose and at the end-of-study visit. PD parameters included 2,3-DPG, ATP, and p50 in all cohorts with additional PD studies (including oxygen scan) performed only in the SCD cohorts. PD parameters included 2,3-DPG, ATP, p50, RBC deformability with controlled deoxygenation and reoxygenation (Lorrca® oxygen scan) and varying osmolality (Lorrca® osmoscan)). To maintain study blind, pt identifiers were removed when needed.
In the MAD cohorts, the subjects' blood ATP levels were measured […] by a qualified LC-MS/MS method for the quantitation of ATP in blood. […] Table 20A reports the median percentage change in blood ATP levels, relative to baseline, measured over time after the first dose on days 1 and 14 in healthy volunteers who received daily doses of Compound 1 (100 mg BID, 200 mg BID, 300 mg BID, or 400 mg QD) or placebo for 14 days. Table 20B reports the mean percentage change in ATP blood levels, relative to baseline, measured over time after the first dose on days 1 and 14 in healthy volunteers who received daily doses of Compound 1 (100 mg BID, 200 mg BID, 300 mg BID, or 400 mg QD) for 14 days.
The following procedures are employed for the analysis of ATP and 2,3-DPG in human whole blood K2EDTA using a protein precipitation extraction procedure and analysis by LC-MS/MS.
The following procedures are used for sample extraction prior to analysis via LC-MS/MS. 15.0 μL of the calibration standards, quality controls, matrix blanks, and samples are aliquoted into a 96-well plate. 50.0 μL of the internal standard spiking solution is added to all samples on the plate, with the exception of the matrix blank samples; 50.0 μL of water is added to the matrix blank samples. Subsequently, 150 μL of water is added to all samples on the plate. The plate is then covered and agitated by vortex at high speed for ten minutes, after which 750 μL of methanol is added to all samples on the plate. The plate is covered and agitated by vortex for approximately 1 minute. The plate is then centrifuged at approximately 3500 RPM at approximately 4° C. for five minutes. After centrifugation, a liquid handler is used to transfer 50 μL of each sample to a new 96-well plate, and 200 μL of acetonitrile is added to all samples on the plate. The newly prepared plate is covered and agitated by vortex for approximately 1 minute. The plate is then centrifuged at approximately 3500 RPM at approximately 4° C. for 2 minutes.

[1] = Day 1, 24 h after first daily dose
[2] = Day 14, 0 h after first daily dose
[3] = Day 14, 6 h after first daily dose
[4] = Day 14, 8 h after first daily dose
[5] = Day 14, 12 h after first daily dose
[6] = Day 14, 16 h after first daily dose
[7] = Day 14, 24 h after first daily dose
[8] = Day 14, 48 h after first daily dose
[9] = Day 14, 72 h after first daily dose
[10] = HV single 200 mg, 0 h after dose
[11] = HV single 200 mg, 6 h after dose
[12] = HV single 200 mg, 8 h after dose
[13] = HV single 200 mg, 12 h after dose
[14] = HV single 200 mg, 16 h after dose
[15] = HV single 200 mg, 24 h after dose
[16] = HV single 200 mg, 36 h after dose
[17] = HV single 200 mg, 48 h after dose
[18] = HV single 200 mg, 72 h after dose
[19] = HV single 400 mg, 0 h after dose
[20] = HV single 400 mg, 6 h after dose
[21] = HV single 400 mg, 8 h after dose
[22] = HV single 400 mg, 12 h after dose
[23] = HV single 400 mg, 16 h after dose
[24] = HV single 400 mg, 24 h after dose
[25] = HV single 400 mg, 36 h after dose
[26] = HV single 400 mg, 48 h after dose
[27] = HV single 400 mg, 72 h after dose
[28] = HV single 700 mg, 0 h after dose
[29] = HV single 700 mg, 6 h after dose
[30] = HV single 700 mg, 8 h after dose
[31] = HV single 700 mg, 12 h after dose
[32] = HV single 700 mg, 16 h after dose
[33] = HV single 700 mg, 24 h after dose
[34] = HV single 700 mg, 36 h after dose
[35] = HV single 700 mg, 48 h after dose
[36] = HV single 700 mg, 72 h after dose
[37] = HV single 1000 mg, 0 h after dose
[38] = HV single 1000 mg, 6 h after dose
[39] = HV single 1000 mg, 8 h after dose
[40] = HV single 1000 mg, 12 h after dose
[41] = HV single 1000 mg, 16 h after dose
[42] = HV single 1000 mg, 24 h after dose
[43] = HV single 1000 mg, 36 h after dose
[44] = HV single 1000 mg, 48 h after dose
[45] = HV single 1000 mg, 72 h after dose

## O=C([C@H](CO)c1ccccc1)N1CC2=C(C1)CN(S(=O)(=O)c1cnc3c(c1)OCCO3)C2 (single isomer, unassigned) [Compound 1]
Day 1, 16 h after first daily dose
  Median Percentage Change in ATP Levels: −1.8%
[1]
  Mean Percentage Change in ATP Levels: 1.9%
  Median Percentage Change in ATP Levels: 0.0%
[2]
  Mean Percentage Change in ATP Levels: 54%
  Median Percentage Change in ATP Levels: 52%
[3]
  Mean Percentage Change in ATP Levels: 48%
  Median Percentage Change in ATP Levels: 52%
[4]
  Mean Percentage Change in ATP Levels: 51%
  Median Percentage Change in ATP Levels: 52%
[5]
  Mean Percentage Change in ATP Levels: 50%
  Median Percentage Change in ATP Levels: 56%
[6]
  Mean Percentage Change in ATP Levels: 51%
  Median Percentage Change in ATP Levels: 51%
[7]
  Mean Percentage Change in ATP Levels: 57%
  Median Percentage Change in ATP Levels: 52%
[8]
  Mean Percentage Change in ATP Levels: 60%
  Median Percentage Change in ATP Levels: 61%
[9]
  Mean Percentage Change in ATP Levels: 51%
  Median Percentage Change in ATP Levels: 54%
HV MAD, all doses and timepoints (N = 36)
  Mean Maximum Percent Change from Baseline, ATP: 68.5%
HV SAD, all doses and timepoints (N = 24)
  Mean Maximum Percent Change from Baseline, ATP: 24.4%
[10]
  mean percentage change in ATP blood levels: 0%
  median percentage change in ATP blood levels: 0%
[11]
  mean percentage change in ATP blood levels: 0.7%
  median percentage change in ATP blood levels: −4.5%
[12]
  mean percentage change in ATP blood levels: −2.1%
  median percentage change in ATP blood levels: −1.7%
[13]
  mean percentage change in ATP blood levels: 2.0%
  median percentage change in ATP blood levels: 1.7%
[14]
  mean percentage change in ATP blood levels: −6.9%
  median percentage change in ATP blood levels: −6.6%
[15]
  mean percentage change in ATP blood levels: 3.4%
  median percentage change in ATP blood levels: 4.7%
[16]
  mean percentage change in ATP blood levels: 6.2%
  median percentage change in ATP blood levels: 4.1%
[17]
  mean percentage change in ATP blood levels: 2.0%
  median percentage change in ATP blood levels: −2.4%
[18]
  mean percentage change in ATP blood levels: 12%
  median percentage change in ATP blood levels: 11%
[19]
  mean percentage change in ATP blood levels: 0%
  median percentage change in ATP blood levels: 0%
[20]
  mean percentage change in ATP blood levels: 2.2%
  median percentage change in ATP blood levels: 4.1%
[21]
  mean percentage change in ATP blood levels: −2.5%
  median percentage change in ATP blood levels: −8.8%
[22]
  mean percentage change in ATP blood levels: 5.6%
  median percentage change in ATP blood levels: 7.2%
[23]
  mean percentage change in ATP blood levels: 5.6%
  median percentage change in ATP blood levels: 4.5%
[24]
  mean percentage change in ATP blood levels: 15%
  median percentage change in ATP blood levels: 13%
[25]
  mean percentage change in ATP blood levels: 18%
  median percentage change in ATP blood levels: 16%
[26]
  mean percentage change in ATP blood levels: 14%
  median percentage change in ATP blood levels: 14%
[27]
  mean percentage change in ATP blood levels: 14%
  median percentage change in ATP blood levels: 18%
[28]
  mean percentage change in ATP blood levels: 0%
  median percentage change in ATP blood levels: 0%
[29]
  mean percentage change in ATP blood levels: −2.8%
  median percentage change in ATP blood levels: −2.6%
[30]
  mean percentage change in ATP blood levels: −2.9%
  median percentage change in ATP blood levels: −1.6%
[31]
  mean percentage change in ATP blood levels: −5.5%
  median percentage change in ATP blood levels: −5.4%
[32]
  mean percentage change in ATP blood levels: −1.3%
  median percentage change in ATP blood levels: −2.4%
[33]
  mean percentage change in ATP blood levels: 13%
  median percentage change in ATP blood levels: 12%
[34]
  mean percentage change in ATP blood levels: 4.5%
  median percentage change in ATP blood levels: 3.6%
[35]
  mean percentage change in ATP blood levels: 2.5%
  median percentage change in ATP blood levels: 0%
[36]
  mean percentage change in ATP blood levels: 10%
  median percentage change in ATP blood levels: 5.1%
[37]
  mean percentage change in ATP blood levels: 0%
  median percentage change in ATP blood levels: 0%
[38]
  mean percentage change in ATP blood levels: −1.7%
  median percentage change in ATP blood levels: 5.1%
[39]
  mean percentage change in ATP blood levels: 4.0%
  median percentage change in ATP blood levels: 3.1%
[40]
  mean percentage change in ATP blood levels: 2.9%
  median percentage change in ATP blood levels: 7.3%
[41]
  mean percentage change in ATP blood levels: 6.9%
  median percentage change in ATP blood levels: 2.4%
[42]
  mean percentage change in ATP blood levels: 12%
  median percentage change in ATP blood levels: 14%
[43]
  mean percentage change in ATP blood levels: 13%
  median percentage change in ATP blood levels: 16%
[44]
  mean percentage change in ATP blood levels: 14%
  median percentage change in ATP blood levels: 10%
[45]
  mean percentage change in ATP blood levels: 22%
  median percentage change in ATP blood levels: 20%
HV single 200, 400, 700 or 1000 mg
  lag of maximum increase in blood ATP behind maximum plasma concentration: at least 24 hours
